# In US20200367506A1, “RARE EARTH DEPENDENT PLANT PROBIOTIC COMPOSITIONS AND METHODS OF USE” (BOARD OF TRUSTEES OF MICHIGAN STATE UNIVERSITY, priority 2017, published 2020):
# How the values were obtained:
# [1] = system: M. extorquens mxaF mutant strain; assay: REE/La^3+-dependent methanol growth of mxaF mutant strain; type: cell-based
# Text: FIGS. 5A-5B show REE-dependent methylotrophy.
# There is a direct link between REEs commonly used in fertilizers, such as La, Ce^3+, Pr^3+, and Nd^3+, and growth of M. extorquens using methanol as carbon source (FIG. 5A). […] Alternatively, it is possible that the remaining lanthanides are not transported into the cell. Detailed biochemical analyses are required to distinguish between these two possibilities.
# The concentrations of exogenous La^3+ that would support La^3+-dependent methanol growth were assessed using methanol medium supplemented with La^3+ concentrations ranging from 0-20 μM (FIG. 5B). The mxaF mutant strain was used to eliminate any contribution by the Ca^2+-dependent methanol dehydrogenase MxaFI.
# [2] = system: M. extorquens; assay: Illumina-based transcriptome analysis (RNA-seq) of cells grown with and without REE; type: cell-based; conditions: La^3+ vs without REE
# Description: To identify mechanisms by which M. extorquens can sense and acquire REE, as well as to support REE-dependent methanol growth, Illumina-based transcriptome analyses (RNA-seq) was performed. Comparison of cells grown in liquid culture with and without REE addition allowed us to identify changes that may be relevant in planta.
# It is intriguing to speculate that the reason why Fdh4 activity has never been detected is because it may require REEs. Frc12 and Oxr are enzymes of the oxalyl-CoA pathway (OXC). This pathway is known to produce glyoxylate when M. extorquens is grown with oxalate as a carbon source.
compound,measurement,setting,value
"[La+3] [La^3+, lanthanum]",Final OD600,[1]; 1 μM La^3+,1.6
same,La^3+ concentration resulting in maximal growth rate,[1]; methanol medium,1 µM
same,Lowest La^3+ concentration at which La^3+-dependent methanol growth was observed,[1]; poor growth,2.5 nM
same,Upregulation of Zn-containing alcohol dehydrogenase Zn-ADH,[2],4.8 fold
same,Upregulation of an ABC transporter,[2],6.3 fold
same,Upregulation of formate dehydrogenase Fdh4,[2],4 fold
same,Upregulation of formyl-CoA transferase Frc12,[2],3 fold
same,Upregulation of oxalyl-CoA (Oxr),[2],2.5 fold
same,Upregulation of putative alcohol dehydrogenase quinoprotein ExaF,[2],3.4 fold
same,Upregulation of the PQQ synthesis pathway,[2],10 fold
same,Upregulation of methanol dehydrogenase genes XoxF1 and XoxF2,[2]; methanol growth,10 fold
